The data set is described as follows: Thermal stability by TGA and comparative UV-Vis before and after heating up to 220° C. Format: physicochemical. On the procedure:
Thermal transitions of polymer films were obtained using DSC (TA instruments Q100) at a heating rate of 10° C./min over a temperature range of about −80 to 200° C. The thermal properties of the polymers were measured by thermogravimetric analysis (TGA) on a TA Instruments, […]. The samples were heated up to 220° C. at a heating rate of 15° C./min under a dry nitrogen atmosphere (flow rate: 70 mL/min) on a TA Instruments 2950 thermogravimetric analyzer. X-ray diffraction (XRD) measurements were conducted via a Rigaku diffractometer in transmission mode with Cu Kα X-rays (λ=0.154 nm) operating at 40 kV and 40 mA. The experiment was carried out at 25° C. with a scan speed of 0.5°/min over a scan range of 5° to 40°.
The thermal property of the polymer-guest system was also investigated by the TGA to ensure system stability during the high temperature layer multiplying coextrusion process. […] A viscosity-match temperature of layer multiplying co-extrusion was determined by a melt flow indexer (MFI) at a low shear rate as shown in FIG. 5. A 60/40 feed ratio of PEO100K/PEO200K in layer B was obtained with the processing temperature of 200° C. selected based on material rheological compatibility. The ABAB-type layer multiplication process was conducted accordingly with PE as the protective surface layer and the technique described herein used to form the multilayer film.

Here are results for one compound from patent US20200093744A1, “POLYMER CONSTRUCTS FOR CONTROLLED RELEASE OF GUEST AGENTS” (CASE WESTERN RESERVE UNIVERSITY, priority 2017, published 2020).

As for `CN(C)c1ccc(N=Nc2ccc(S(=O)(=O)[O-])cc2)cc1.[Na+]` [MO, methyl orange], the “conjugation structure of MO after heating (comparative UV-Vis)” value is “remained intact”.
